In patent US20240408086A1, “USE OF LUVADAXISTAT FOR THE TREATMENT OF COGNITIVE IMPAIRMENT” (TAKEDA PHARMACEUTICAL COMPANY LIMITED, priority 2021, published 2024):

Test system: rat hippocampus
Experiment: D-serine on short-term potentiation and long-term depression in rat hippocampal slices
Design: species or system Sprague Dawley rats
Conditions: 1 mM D-serine vs controls
Experimental: To obtain rat hippocampal slices, 4-week-old Sprague Dawley rats (provided by Elevage Janvier, Le Genest-Saint-Isle, France) were euthanized by fast decapitation without anesthesia. The brain was quickly removed and soaked in ice-cold oxygenated buffer: 2 mM KCl, 1.2 mM NaH2PO4, 7 mM MgCl2, 0.5 mM CaCl2), 26 mM NaHCO3, 11 mM glucose, and 250 mM sucrose. Hippocampal slices were prepared at 400 μm thickness with a McILWAIN tissue chopper. […] Slices were continuously perfused with oxygenated aCSF during experiments. The animals were housed and used in accordance with French and European legislation.
Electrophysiological recordings were obtained from a single hippocampal slice placed on the chamber and perfused with aCSF at a constant rate. Extracellular field excitatory postsynaptic potentials (fEPSPs) were recorded in the CA1 stratum radiatum using a glass micropipette filled with aCSF. fEPSPs were evoked by electrical stimulation of Schaffer collaterals/commissural pathway at 0.1 Hz with a glass stimulating electrode placed in the stratum radiatum.
Acute high doses (1 mM) of D-serine induced hippocampal synaptic plasticity (short-term potentiation and long-term depression) compared with controls in the rat hippocampus (FIGS. 1A-1C). Data in FIGS. 1A and 1B were normalized to the 10-minute control period.

## N[C@H](CO)C(=O)O [D-serine]
p=0.0374, unpaired t-test
  Depression of EPSP amplitudes (long-term depression): significantly decreased the depression of EPSP amplitudes
p=0.0603, unpaired t-test
  Potentiation of excitatory postsynaptic potential (EPSP) amplitudes (short-term potentiation): increased the potentiation of excitatory postsynaptic potential (EPSP) amplitudes, although this change was not statistically significant
